According to patent US12545673B2, “Imidazopyridine derivative and pharmaceutical composition comprising same as active ingredient” (TSD LIFE SCIENCES CO., LTD., priority 2019, dated 2026):
Read-outs that look alike come from different tables or passages of the source.

How the values were obtained:
[1] = system: acute lymphoblastic leukemia cell line Jurkat; experiment: Cancer cell proliferation inhibitory activity evaluation 2 (CCK-8), Jurkat; assay type: cell-based; details: Homo sapiens
Protocol: (§1) In order to identify whether the compounds have anticancer activity, the acute myeloid leukemia cell line U937, the acute lymphoblastic leukemia cell line Jurkat, the gastric cancer cell lines AGS, […], and the human lung cancer cell line A549 were used. The cell line was cultured using RPMI-1640 medium (U937, Jurkat, AGS, A549) or DMEM (Hs746T) medium containing 10% fetal bovine serum. Welgene products were used as the medium, and hyclone products were used for fetal bovine serum, and 1% of antibiotics for cell culture from Gibco were used as the culture medium.

MLK1 = MLK1 (Homo sapiens (Human), UniProt P80192); experiment: Evaluation of inhibitory activity of enzyme units, MLK1 ([γ-33P]-ATP filter assay); assay type: biochemical
[2] = system: acute myeloid leukemia cell line U937; experiment: Cancer cell proliferation inhibitory activity evaluation 2 (CCK-8), U937; assay type: cell-based; details: Homo sapiens, read-out: Cancer cell proliferation inhibitory activity U937
Protocol: as §1

[3] = system: gastric cancer cell line AGS; experiment: Cancer cell proliferation inhibitory activity evaluation 2 (CCK-8), AGS; assay type: cell-based; details: Homo sapiens, read-out: Cancer cell proliferation inhibitory activity AGS
Protocol: as §1

[4] = system: gastric cancer cell line Hs746T; experiment: Cancer cell proliferation inhibitory activity evaluation 2 (CCK-8), Hs746T; assay type: cell-based; details: Homo sapiens
Protocol: as §1

[5] = system: human lung cancer cell line A549; experiment: Cancer cell proliferation inhibitory activity evaluation 2 (CCK-8), A549; assay type: cell-based
Protocol: as §1

MLK3 = MLK3 (Homo sapiens (Human), UniProt Q16584); experiment: Evaluation of inhibitory activity of enzyme units, MLK3 ([γ-33P]-ATP filter assay); details: read-out: IC50(nM) MLK3
[6] = 10 μM, 72 hours, CCK-8, read-out: Cancer cell proliferation inhibitory activity Jurkat
[7] = U-937, 10 μM, 72 hours, CCK-8 (Table 3)
[8] = 10 μM, 72 hours, CCK-8, read-out: Cancer cell proliferation inhibitory activity Hs746T
[9] = A549, 10 μM, 72 hours, CCK-8, read-out: Cancer cell proliferation inhibitory activity A549
[10] = 72 h, read-out: Cancer cell proliferation inhibitory activity Jurkat
[11] = 72 h, read-out: Cancer cell proliferation inhibitory activity Hs746T
[12] = A549, 72 h, read-out: Cancer cell proliferation inhibitory activity A549

Chain of MLK1 (P80192 whole entry, looked up): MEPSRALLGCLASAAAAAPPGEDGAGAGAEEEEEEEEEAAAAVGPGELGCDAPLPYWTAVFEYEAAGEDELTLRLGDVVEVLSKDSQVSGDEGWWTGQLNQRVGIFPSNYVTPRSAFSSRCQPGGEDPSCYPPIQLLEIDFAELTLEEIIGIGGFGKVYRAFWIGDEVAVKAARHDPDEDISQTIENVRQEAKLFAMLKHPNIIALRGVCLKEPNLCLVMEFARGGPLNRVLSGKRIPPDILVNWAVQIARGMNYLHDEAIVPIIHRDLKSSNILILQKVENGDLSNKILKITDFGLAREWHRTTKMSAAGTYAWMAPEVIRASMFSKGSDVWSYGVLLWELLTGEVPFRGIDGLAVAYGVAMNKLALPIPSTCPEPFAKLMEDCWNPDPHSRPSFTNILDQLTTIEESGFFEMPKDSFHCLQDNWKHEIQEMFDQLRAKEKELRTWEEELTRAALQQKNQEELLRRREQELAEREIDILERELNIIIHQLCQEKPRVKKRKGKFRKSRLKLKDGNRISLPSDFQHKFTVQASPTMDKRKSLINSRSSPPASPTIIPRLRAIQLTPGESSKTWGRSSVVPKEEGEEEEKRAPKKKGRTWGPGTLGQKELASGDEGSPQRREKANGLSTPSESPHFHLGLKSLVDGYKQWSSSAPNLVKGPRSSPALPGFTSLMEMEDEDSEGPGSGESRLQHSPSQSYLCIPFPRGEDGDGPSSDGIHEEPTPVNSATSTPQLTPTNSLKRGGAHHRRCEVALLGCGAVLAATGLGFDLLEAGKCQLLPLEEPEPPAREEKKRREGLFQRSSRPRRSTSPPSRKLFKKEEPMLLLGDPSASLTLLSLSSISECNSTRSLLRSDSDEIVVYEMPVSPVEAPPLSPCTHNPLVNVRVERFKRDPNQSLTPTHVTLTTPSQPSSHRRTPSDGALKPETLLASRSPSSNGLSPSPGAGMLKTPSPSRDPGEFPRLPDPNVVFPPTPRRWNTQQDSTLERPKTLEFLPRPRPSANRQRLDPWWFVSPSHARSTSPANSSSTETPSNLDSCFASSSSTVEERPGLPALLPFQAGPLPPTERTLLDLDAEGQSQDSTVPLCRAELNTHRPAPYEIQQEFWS
Chain of MLK3 (Q16584 whole entry, looked up): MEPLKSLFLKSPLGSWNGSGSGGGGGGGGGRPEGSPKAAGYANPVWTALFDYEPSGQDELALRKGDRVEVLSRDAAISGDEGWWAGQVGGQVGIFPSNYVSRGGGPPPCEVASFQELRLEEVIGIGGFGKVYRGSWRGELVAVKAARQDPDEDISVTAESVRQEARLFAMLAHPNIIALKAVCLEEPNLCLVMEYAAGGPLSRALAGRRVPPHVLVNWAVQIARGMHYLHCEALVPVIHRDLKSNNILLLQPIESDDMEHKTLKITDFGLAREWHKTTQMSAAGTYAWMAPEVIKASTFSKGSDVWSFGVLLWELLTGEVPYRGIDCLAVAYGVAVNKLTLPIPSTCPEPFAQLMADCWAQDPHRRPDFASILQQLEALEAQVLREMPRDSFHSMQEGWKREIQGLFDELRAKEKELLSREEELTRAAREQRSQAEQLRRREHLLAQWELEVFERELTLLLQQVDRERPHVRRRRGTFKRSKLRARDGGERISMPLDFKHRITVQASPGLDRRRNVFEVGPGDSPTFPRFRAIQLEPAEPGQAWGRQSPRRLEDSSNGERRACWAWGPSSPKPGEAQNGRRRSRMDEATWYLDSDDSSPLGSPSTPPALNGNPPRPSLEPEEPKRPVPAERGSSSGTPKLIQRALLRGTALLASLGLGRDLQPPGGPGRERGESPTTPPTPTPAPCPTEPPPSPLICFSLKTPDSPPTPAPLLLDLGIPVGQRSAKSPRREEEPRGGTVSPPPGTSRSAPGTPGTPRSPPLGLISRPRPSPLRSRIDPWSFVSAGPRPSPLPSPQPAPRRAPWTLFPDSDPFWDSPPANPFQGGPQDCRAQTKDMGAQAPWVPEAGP

Structure (SMILES)	inhibition at 10 µM [1, 6] [%]	IC50 (MLK1) [nM]	inhibition at 10 µM [2, 7] [%]	inhibition at 10 µM ([3]; 10 μM, 72 hours, CCK-8) [%]	inhibition at 10 µM [4, 8] [%]	inhibition at 10 µM [5, 9] [%]	IC50 (MLK3) [nM]	inhibition at 10 µM [1, 10] [%]	inhibition at 10 µM ([2]; U-937, 72 h) [%]	inhibition at 10 µM ([3]; 72 h) [%]	inhibition at 10 µM [4, 11] [%]	inhibition at 10 µM [5, 12] [%]
CCS(=O)(=O)N1CC[C@H](Nc2c(Br)cnc3[nH]c(-c4cc(C)n(-c5ccc(C(=O)NCCN6CCOCC6)cc5)c4C)nc23)C1 [Example 70, (S)-4-(3-(6-bromo-7-((1-(ethylsulfonyl)pyrrolidine-3-yl)amino)-3H-imidazo[4,5-b]pyridine-2-yl)-2,5-dimethyl-1H-pyrrol-1-yl)-N-(2-morpholinoethyl)benzamide]	> 50	36	> 50	> 50	10 to 50	10 to 50	18					
CCS(=O)(=O)N1CC[C@H](Nc2c(Br)cnc3[nH]c(-c4cc(C)n(-c5cccc(C(=O)NCCN6CCN(C)CC6)c5)c4C)nc23)C1 [Example 71, (S)-3-(3-(6-bromo-7-((1-(ethylsulfonyl)pyrrolidine-3-yl)amino)-3H-imidazo[4,5-b]pyridine-2-yl)-2,5-dimethyl-1H-pyrrol-1-yl)-N-(2-(4-methylpiperazine-1-yl)ethyl)benzamide]		36					26	> 50	10 to 50	> 50	> 50	< 10
CCS(=O)(=O)N1CC[C@H](Nc2c(Br)cnc3[nH]c(-c4cc(C)n(-c5ccc(C(=O)NCCN6CCN(C)CC6)cc5)c4C)nc23)C1 [Example 72, (S)-4-(3-(6-bromo-7-((1-(ethylsulfonyl)pyrrolidine-3-yl)amino)-3H-imidazo[4,5-b]pyridine-2-yl)-2,5-dimethyl-1H-pyrrol-1-yl)-N-(2-(4-methylpiperazine-1-yl)ethyl)benzamide]		25					15	> 50	> 50	> 50	> 50	10 to 50
CCS(=O)(=O)N1CC[C@H](Nc2c(Br)cnc3nc(-c4cc(C)n(-c5cc(NC(=O)CN(C)C)ccc5C)c4C)[nH]c23)C1 [Example 74, N-(3-(3-(6-bromo-7-(((S)-1-(ethylsulfonyl)pyrrolidine-3-yl)amino)-1H-imidazo[4,5-b]pyridine-2-yl)-2,5-dimethyl-1H-pyrrol-1-yl)-4-methylphenyl)-2-(dimethylamino) acetamide]	> 50	43	> 50	> 50	> 50	> 50	46					
CCS(=O)(=O)N1CC[C@H](Nc2c(Br)cnc3nc(-c4cc(C)n(-c5ccc(NC(=O)CN6CCN(C)CC6)cc5C)c4C)[nH]c23)C1 [Example 75, N-(4-(3-(6-bromo-7-(((S)-1-(ethylsulfonyl)pyrrolidine-3-yl)amino)-1H-imidazo[4,5-b]pyridine-2-yl)-2,5-dimethyl-1H-pyrrol-1-yl)-3-methylphenyl)-2-(4-methylpiperazine-1-yl) acetamide]		30					16	> 50	> 50	> 50	> 50	> 50
CCS(=O)(=O)N1CC[C@H](Nc2c(Br)cnc3nc(-c4cc(C)n(-c5ccc(NC(=O)CN6CCOCC6)cc5C)c4C)[nH]c23)C1 [Example 77, N—(4-(3-(6-bromo-7-(((S)-1-(ethylsulfony)pyrolidine-3-yl)amino)-1H-imidazo[4,5-b]pyridine-2-yl)-2,5-dimethyl-1H-pyrrol-1-yl)-3-methylphenyl)-2-morpholinoacetamide]	> 50	19	> 50	> 50	10 to 50	10 to 50	7					
CCS(=O)(=O)N1CC[C@H](Nc2c(Br)cnc3nc(-c4cc(C)n(-c5cc(NC(=O)CN6CCOCC6)ccc5C)c4C)[nH]c23)C1 [Example 78, N-(3-(3-(6-bromo-7-(((S)-1-(ethylsulfonyl)pyrrolidine-3-yl)amino)-1H-imidazo[4,5-b]pyridine-2-yl)-2,5-dimethyl-1H-pyrrol-1-yl)-4-methylphenyl)-2-morpholinoacetamide]		25					47	> 50	> 50	> 50	> 50	> 50
CCS(=O)(=O)N1CC[C@H](Nc2c(Br)cnc3nc(-c4cc(C)n(-c5cccc(NC(=O)CCN(C)C)c5C)c4C)[nH]c23)C1 [Example 79]		35					7	> 50	> 50	> 50	> 50	> 50
CCS(=O)(=O)N1CC[C@H](Nc2c(Br)cnc3nc(-c4cc(C)n(-c5cccc(C(=O)N6CCOCC6)c5C)c4C)[nH]c23)C1 [Example 83, (3-(3-(6-bromo-7-(((S)-1-(ethylsulfonyl)pyrrolidine-3-yl)amino)-1H-imidazo[4,5-b]pyridine-2-yl)-2,5-dimethyl-1H-pyrrol-1-yl)-2-methylphenyl) (morpholino) methanone]		22					12	> 50	> 50	> 50	> 50	10 to 50
CCS(=O)(=O)N1CC[C@H](Nc2c(Br)cnc3nc(-c4cc(C)n(-c5cccc(NC(=O)CN6CCN(C)CC6)c5C)c4C)[nH]c23)C1 [Example 87, N-(3-(3-(6-bromo-7-(((S)-1-(ethylsulfonyl)pyrrolidine-3-yl)amino)-1H-imidazo[4,5-b]pyridine-2-yl)-2,5-dimethyl-1H-pyrrol-1-yl)-2-methylphenyl)-2-(4-methylpiperazine-1-yl) acetamide]		24					13	> 50	> 50	> 50	> 50	> 50
Cc1ccc(NC(=O)CN2CCN(C)CC2)cc1-n1c(C)cc(-c2nc3ncc(Br)c(Nc4cccc(S(N)(=O)=O)c4)c3[nH]2)c1C [Example 89, N-(3-(3-(6-bromo-7-((3-sulfamoylphenyl)amino)-1H-imidazo[4,5-b]pyridine-2-yl)-2,5-dimethyl-1H-pyrrol-1-yl)-4-methylphenyl)-2-(4-methylpiperazine-1-yl) acetamide]	10 to 50	169	< 10	10 to 50	10 to 50	< 10	81					
Cc1ccc(NC(=O)CN(C)C)cc1-n1c(C)cc(-c2nc3ncc(Br)c(Nc4cccc(S(N)(=O)=O)c4)c3[nH]2)c1C [Example 90, N-(3-(3-(6-bromo-7-((3-sulfamoylphenyl)amino)-1H-imidazo[4,5-b]pyridine-2-yl)-2,5-dimethyl-1H-pyrrol-1-yl)-4-methylphenyl)-2-(dimethylamino) acetamide]	> 50	160	10 to 50	> 50	10 to 50	10 to 50	92					
